According to paper PMC10202323, “4′-Deoxypyridoxine disrupts vitamin B6 homeostasis in Escherichia coli K12 through combined inhibition of cumulative B6 uptake and PLP-dependent enzyme activity” (Microbiology, 2023):

Experiments:
Type in all cases: biochemical
PdxK = biological target: T1, PdxK (Escherichia coli, UniProt P40191); assay: spectrophotometric PLP formation at […] nm; settings: read-out: inhibition constant
T1 construct: recombinant, purified to homogeneity as previously reported

PdxH = biological target: T2, PdxH (Escherichia coli, UniProt P0AFI7); assay: spectrophotometric PLP formation at […] nm; settings: read-out: apparent inhibition constant
T2 construct: recombinant, purified to homogeneity as previously reported
T2 sequence (P0AFI7 2-218): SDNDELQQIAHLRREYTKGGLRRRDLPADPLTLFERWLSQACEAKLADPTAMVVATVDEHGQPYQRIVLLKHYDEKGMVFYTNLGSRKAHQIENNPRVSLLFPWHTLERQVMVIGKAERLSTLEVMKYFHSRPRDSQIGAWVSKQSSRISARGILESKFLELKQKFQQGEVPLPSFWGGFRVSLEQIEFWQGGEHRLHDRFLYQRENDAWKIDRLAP

GlyA = biological target: T3, GlyA (Escherichia coli, UniProt P0A825); assay: spectrophotometric coupled SHMT assay; settings: read-out: apparent inhibition constant
T3 construct: recombinant, purified to homogeneity as previously reported; apoenzyme reconstituted with PLP
T3 sequence (P0A825 1-417): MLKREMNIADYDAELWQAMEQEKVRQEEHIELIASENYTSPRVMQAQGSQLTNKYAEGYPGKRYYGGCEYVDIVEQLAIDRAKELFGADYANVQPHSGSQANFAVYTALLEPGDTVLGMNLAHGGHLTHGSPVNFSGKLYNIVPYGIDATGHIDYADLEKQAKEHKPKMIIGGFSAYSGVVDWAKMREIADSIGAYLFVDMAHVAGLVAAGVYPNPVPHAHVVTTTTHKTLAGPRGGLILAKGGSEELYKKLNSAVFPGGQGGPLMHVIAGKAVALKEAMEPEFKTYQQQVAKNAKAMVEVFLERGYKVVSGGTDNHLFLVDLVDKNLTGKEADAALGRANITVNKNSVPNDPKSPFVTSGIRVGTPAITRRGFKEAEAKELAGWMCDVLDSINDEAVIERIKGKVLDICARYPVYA

T1 sequence (P40191 whole entry): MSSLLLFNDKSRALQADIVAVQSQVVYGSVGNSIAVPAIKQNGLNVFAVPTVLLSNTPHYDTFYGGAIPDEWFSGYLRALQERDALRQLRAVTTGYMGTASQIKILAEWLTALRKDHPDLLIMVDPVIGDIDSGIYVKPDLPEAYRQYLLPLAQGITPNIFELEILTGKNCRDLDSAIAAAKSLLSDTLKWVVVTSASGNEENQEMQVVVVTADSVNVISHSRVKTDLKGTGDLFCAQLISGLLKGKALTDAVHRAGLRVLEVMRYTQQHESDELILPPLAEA

| Ki (PdxK) [µM] | Ki (PdxH) [µM] | Ki (GlyA) [µM] | SMILES |
| --- | --- | --- | --- |
| 0.5 ± 0.6 |  |  | Cc1ncc(CO)c(C)c1O [4dPN] |
|  | 530 ± 30 | 50 ± 30 | Cc1ncc(COP(=O)(O)O)c(C)c1O [4dPNP] |
